The numbers were not newly measured in patent US8148390B2, “Monocyclic anilide spirolactam CGRP receptor antagonists” (Merck, Sharp & Dohme, Corp., priority 2007, dated 2012), which cites them from elsewhere.

Read-outs that look alike come from different tables or passages of the source. Ends that are not written are not given here.

In data set [1] the test system is facial blood flow. The conditions noted are these: marmoset, electrical stimulation of the trigeminal ganglion (Doods et al. 2000).
In data set [2] the test system is acute attacks of migraine. The note with it: clinical trials (Olesen et al. 2004).
Data set [3] relates to headache induced by CGRP infusion. The conditions noted are these: control group (Petersen et al. 2005).
The test system of data set [4] is middle meningeal artery. The note with it: rats, electrical stimulation of the dura mater, prior administration (Williamson et al. 1997).
The test system of data set [5] is facial blood flow. The conditions noted are these: rat, trigeminal ganglion stimulation (Escott et al. 1995).

`NCCCC[C@H](NC(=O)[C@@H](Cc1cc(Br)c(O)c(Br)c1)NC(=O)N1CCC(N2Cc3ccccc3NC2=O)CC1)C(=O)N1CCN(c2ccncc2)CC1` [BIBN4096BS]: the “effect on increase of facial blood flow” value in data set [1] is “could be blocked”. For the same compound, the “efficacy in treating acute attacks of migraine” value in data set [2] is given as “effective in treating acute attacks of migraine”. The “prevention of headache induced by CGRP infusion” value in data set [3] is given as “able to prevent headache induced by CGRP infusion”.
For the compound “CGRP(8-37): a peptide CGRP antagonist; fragment of CGRP that lacks seven N-terminal amino acid residues (VTHRLAGLLSRSGGVVKNNFVPTNVGSKAF; ends and bridges not checked; UniProt P06881 90-119, looked up, fragment)”, the “effect on increase of middle meningeal artery diameter” value in data set [4] is “blocked”. Further, in data set [5], the “effect on increase of facial blood flow” value is reported as “inhibited”.
